Test results as given in PubChem BioAssay (NCI).
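Exposure lasted 48 hours, with cells grown in 96-well plates and compounds tested at five concentrations. Here, GI50 denotes the concentration required for 50% inhibition of growth. TGI: total growth inhibition.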

Legend:
Assay in all cases: DTP human tumour cell line panel, 48 h
[1] = test system: 786-0 renal
[2] = test system: A498 renal
[3] = test system: A549 NSCLC
[4] = test system: ACHN renal
[5] = test system: BT-549 breast
[6] = test system: CAKI-1 renal
[7] = test system: CCRF-CEM leukemia
[8] = test system: COLO 205 colon
[9] = test system: DU-145 prostate
[10] = test system: HCC-2998 colon
[11] = test system: HCT-116 colon
[12] = test system: HCT-15 colon
[13] = test system: HL-60(TB) leukemia
[14] = test system: HOP-62 NSCLC
[15] = test system: HOP-92 NSCLC
[16] = test system: HS 578T breast
[17] = test system: HT29 colon
[18] = test system: IGROV1 ovarian
[19] = test system: K-562 leukemia
[20] = test system: KM12 colon
[21] = test system: LOX IMVI melanoma
[22] = test system: M14 melanoma
[23] = test system: MALME-3M melanoma
[24] = test system: MCF7 breast
[25] = test system: MDA-MB-231 breast
[26] = test system: MDA-MB-435
[27] = test system: MOLT-4 leukemia
[28] = test system: NCI-H226 lung
[29] = test system: NCI-H23 lung
[30] = test system: NCI-H460 lung
[31] = test system: NCI-H522 lung
[32] = test system: NCI/ADR-RES ovarian
[33] = test system: OVCAR-3 ovarian
[34] = test system: OVCAR-4 ovarian
[35] = test system: OVCAR-5 ovarian
[36] = test system: OVCAR-8 ovarian
[37] = test system: PC-3 prostate
[38] = test system: RPMI-8226 leukemia
[39] = test system: RXF 393 renal
[40] = test system: SF-268 CNS
[41] = test system: SF-295 CNS
[42] = test system: SF-539 CNS
[43] = test system: SK-MEL-2 melanoma
[44] = test system: SK-MEL-28 melanoma
[45] = test system: SK-MEL-5 melanoma
[46] = test system: SK-OV-3 ovarian
[47] = test system: SN12C renal
[48] = test system: SNB-19 CNS
[49] = test system: SNB-75 CNS
[50] = test system: SR leukemia
[51] = test system: SW-620 colon
[52] = test system: T-47D breast
[53] = test system: TK-10 renal
[54] = test system: U251 CNS
[55] = test system: UACC-257 melanoma
[56] = test system: UACC-62 melanoma
[57] = test system: UO-31 renal

Cn1cc(C2=C(Sc3ccccc3)C(=O)NC2=O)c2ccccc21
GI50 [1]: > 16.4 µM | TGI [1]: > 25 µM | GI50 [2]: > 23.1 µM | TGI [2]: > 25 µM | GI50 [3]: > 22.4 µM | TGI [3]: > 25 µM | GI50 [4]: 6.23 µM | TGI [4]: > 17.3 µM | GI50 [5]: 9.49 µM | TGI [5]: > 20.7 µM | GI50 [6]: > 18.1 µM | TGI [6]: > 25 µM | GI50 [7]: 7.7 µM | TGI [7]: > 25 µM | GI50 [8]: > 16.2 µM | TGI [8]: > 25 µM | GI50 [9]: 13.8 µM | TGI [9]: > 25 µM | GI50 [10]: > 12.3 µM | TGI [10]: > 18.2 µM | GI50 [11]: 7.41 µM | TGI [11]: > 16.9 µM | GI50 [12]: 7.87 µM | TGI [12]: > 19.1 µM | GI50 [13]: 8.4 µM | TGI [13]: 23.5 µM | GI50 [14]: > 25 µM | TGI [14]: > 25 µM | GI50 [15]: 24.5 µM | TGI [15]: > 25 µM | GI50 [16]: > 18.2 µM | TGI [16]: > 25 µM | GI50 [17]: > 18.7 µM | TGI [17]: > 25 µM | GI50 [18]: 10.5 µM | TGI [18]: > 25 µM | GI50 [19]: 12.9 µM | TGI [19]: > 25 µM | GI50 [20]: > 25 µM | TGI [20]: > 25 µM | GI50 [21]: 4.7 µM | TGI [21]: 10.2 µM | GI50 [22]: 24.2 µM | TGI [22]: > 25 µM | GI50 [23]: > 13.2 µM | TGI [23]: > 20.2 µM | GI50 [24]: 7.83 µM | TGI [24]: > 20.6 µM | GI50 [25]: 12.1 µM | TGI [25]: > 25 µM | GI50 [26]: 10 µM | TGI [26]: > 25 µM | GI50 [27]: 7.9 µM | TGI [27]: > 25 µM | GI50 [28]: > 25 µM | TGI [28]: > 25 µM | GI50 [29]: > 22.2 µM | TGI [29]: > 25 µM | GI50 [30]: > 25 µM | TGI [30]: > 25 µM | GI50 [31]: 3.29 µM | TGI [31]: 8.44 µM | GI50 [32]: > 25 µM | TGI [32]: > 25 µM | GI50 [33]: 9.57 µM | TGI [33]: > 22.5 µM | GI50 [34]: > 18.3 µM | TGI [34]: > 25 µM | GI50 [35]: > 25 µM | TGI [35]: > 25 µM | GI50 [36]: > 14.2 µM | TGI [36]: > 25 µM | GI50 [37]: > 25 µM | TGI [37]: > 25 µM | GI50 [38]: 9.19 µM | TGI [38]: > 25 µM | GI50 [39]: 7.2 µM | TGI [39]: > 17.6 µM | GI50 [40]: > 15.2 µM | TGI [40]: > 25 µM | GI50 [41]: > 25 µM | TGI [41]: > 25 µM | GI50 [42]: > 25 µM | TGI [42]: > 25 µM | GI50 [43]: > 13.6 µM | TGI [43]: > 21.8 µM | GI50 [44]: > 12.8 µM | TGI [44]: > 22.7 µM | GI50 [45]: > 15.1 µM | TGI [45]: > 25 µM | GI50 [46]: > 25 µM | TGI [46]: > 25 µM | GI50 [47]: > 14.9 µM | TGI [47]: > 25 µM | GI50 [48]: > 25 µM | TGI [48]: > 25 µM | GI50 [49]: > 25 µM | TGI [49]: > 25 µM | GI50 [50]: 9.81 µM | TGI [50]: > 25 µM | GI50 [51]: 9.69 µM | TGI [51]: > 16.5 µM | GI50 [52]: 7.56 µM | TGI [52]: > 17.2 µM | GI50 [53]: > 13.6 µM | TGI [53]: > 20.4 µM | GI50 [54]: > 25 µM | TGI [54]: > 25 µM | GI50 [55]: > 12 µM | TGI [55]: > 21.2 µM | GI50 [56]: > 13.7 µM | TGI [56]: > 25 µM | GI50 [57]: 8.84 µM | TGI [57]: > 14.3 µM
